Test results from publication PMC7532004, “Site-specific effects of neurosteroids on GABAA receptor activation and desensitization” (eLife, 2020).

Biological target: T1, α1β3 GABAAR WT (Homo sapiens, UniProt P14867+P28472)
T1 construct: inserted between the fourth and fifth residues of the mature peptide; photolabeling full-length heteropentameric GABAARs in native membranes; expressed in transfected cells
T1 sequence (P14867 28-456): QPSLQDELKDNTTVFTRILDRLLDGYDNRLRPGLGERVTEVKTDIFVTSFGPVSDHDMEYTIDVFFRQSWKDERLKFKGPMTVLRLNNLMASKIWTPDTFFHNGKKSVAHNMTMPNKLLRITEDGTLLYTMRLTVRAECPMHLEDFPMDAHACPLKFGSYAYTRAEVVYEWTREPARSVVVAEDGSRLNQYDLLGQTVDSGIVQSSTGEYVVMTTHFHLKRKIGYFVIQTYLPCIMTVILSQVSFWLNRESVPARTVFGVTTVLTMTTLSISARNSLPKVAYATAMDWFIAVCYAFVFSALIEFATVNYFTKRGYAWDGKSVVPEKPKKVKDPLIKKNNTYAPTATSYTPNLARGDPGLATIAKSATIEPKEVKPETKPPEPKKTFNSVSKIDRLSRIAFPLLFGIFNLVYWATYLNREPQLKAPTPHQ
T1 sequence (P28472 26-473): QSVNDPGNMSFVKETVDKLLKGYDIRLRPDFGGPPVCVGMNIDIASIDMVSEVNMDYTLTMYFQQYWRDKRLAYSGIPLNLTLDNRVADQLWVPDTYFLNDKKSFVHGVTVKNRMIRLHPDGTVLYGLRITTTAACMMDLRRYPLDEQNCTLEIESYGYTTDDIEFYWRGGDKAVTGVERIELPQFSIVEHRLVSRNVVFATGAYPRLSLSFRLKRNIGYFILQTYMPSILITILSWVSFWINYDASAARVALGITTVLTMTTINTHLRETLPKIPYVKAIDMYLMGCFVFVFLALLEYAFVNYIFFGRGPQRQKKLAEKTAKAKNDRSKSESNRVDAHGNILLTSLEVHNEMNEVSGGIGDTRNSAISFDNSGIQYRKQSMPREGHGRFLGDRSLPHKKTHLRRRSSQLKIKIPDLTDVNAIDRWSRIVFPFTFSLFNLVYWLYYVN
Assay: [3H]muscimol binding to HEK cell membranes (neurosteroid modulation and isotherms), WT receptor
Conditions: WT α1β3
Protocol: Stably transfected cells were plated into dishes. After reaching 50% confluence, GABAA receptors were expressed by inducing cells with 1 μg/ml of doxycycline with the addition of 5 mM sodium butyrate. Cells were harvested 48 to 72 hr after induction. HEK cells, after induction, were grown to 100% confluence, harvested and washed with 10 mM potassium phosphate, 100 mM potassium chloride (pH 7.5) plus protease inhibitors (Sigma-Aldrich, St. Louis, MO) two times. The cells were collected by centrifugation at 1,000 g at 4°C for 5 min. The cells were homogenized with a glass mortar and a Teflon pestle for ten strokes on ice. The pellet containing the membrane proteins was collected after centrifugation at 20,000 g at 4°C for 45 min and resuspended in a buffer containing 10 mM potassium phosphate, 100 mM potassium chloride (pH 7.5). The protein concentration was determined with micro-BCA protein assay and membranes were stored at −80°C.
[^3H]muscimol-binding assays were performed using a previously described method ([Chen et al., 2019]). […] Assay tubes were incubated for 1 hr on ice in the dark. […] Membranes were collected on Whatman/GF-C glass filter papers using a Brandel cell harvester (Gaithersburg, MD). To perform [^3H]muscimol binding isotherms, 100 μg/ml aliquots of membrane protein were incubated with 0.3 nM–1 μM [^3H]muscimol for 1 hr on ice in the dark. The specific activity for [^3H]muscimol concentrations from 30 nM to 1 μM was reduced to 2 Ci/mmol by dilution with nonradioactive muscimol. The membranes were collected on Whatman/GF-B glass filter papers using a vacuum manifold. […] For [^3H]muscimol-binding experiments examining competitive interactions between neurosteroids, the combined neurosteroids (0.3 μM 3α5αP or 3 μM KK148 ±30 μM KK150) or the same volume of dimethyl sulfoxide (DMSO) were added to the membranes which were then incubated with 3 nM [^3H]muscimol on ice for 1 hr. Time courses of neurosteroid [^3H]muscimol binding enhancement were examined by adding 10 µM of neurosteroids (3α5αP, 3β5αP) to membranes that had been fully equilibrated with 3 nM [^3H]muscimol for 1 hr on ice; binding was then measured as a function of time at 1, 3, 10, 30, 60 min. The membranes were collected on Whatman/GF-B glass filter papers using a vacuum manifold. Radioactivity bound to the filters was measured by liquid scintillation spectrometry using Bio-Safe II (Research Products International, Mount Prospect, IL).

CCOC(=O)c1cncn1[C@H](C)c1ccccc1 [Etomidate, etomidate]
Emax (% of control) of [3H]muscimol binding (3 nM [3H]muscimol, 100% means no effect): 331.1 ± 9.9 % of control
Bmax of [3H]muscimol binding isotherm in the presence of the modulator (etomidate 100 μM, 3α5αP 30 μM, KK148 30 μM, control 9.8 ± 0.8): 10.1 ± 0.5 pmol/mg
